Data published in patent publication US6858638B2, “Substituted indazoles, compositions containing them, method of production and use” (Aventis Pharma S.A., priority 2002, dated 2005).

Columns and labels:
Format in all cases: biochemical
[1] = molecular target: T1, human IGF1R cytoplasmic domain (Homo sapiens, UniProt P08069); assay: IGF1R autophosphorylation inhibition, time resolved fluorescence (HTRF) assay; settings: 10 μM; read-out: IGF1R % inhib at 10 μM
T1 construct: The human IGF1R cytoplasmic domain was cloned; made in house; host or cells: SF21 insect cells (baculovirus)
T1 sequence (P08069 960-1367 limits assumed): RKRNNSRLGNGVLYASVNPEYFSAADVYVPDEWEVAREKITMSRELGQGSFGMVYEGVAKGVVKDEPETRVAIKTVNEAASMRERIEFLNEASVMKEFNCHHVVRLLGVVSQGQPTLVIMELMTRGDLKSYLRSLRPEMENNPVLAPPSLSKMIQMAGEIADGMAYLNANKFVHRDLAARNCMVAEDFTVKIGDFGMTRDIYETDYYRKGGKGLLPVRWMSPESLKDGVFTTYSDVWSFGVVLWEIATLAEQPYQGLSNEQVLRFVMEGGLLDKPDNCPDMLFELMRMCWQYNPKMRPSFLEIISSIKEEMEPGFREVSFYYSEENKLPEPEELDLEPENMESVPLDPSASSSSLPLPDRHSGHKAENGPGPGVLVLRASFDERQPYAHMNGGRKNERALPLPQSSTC
Summary of the method: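 GST-tagged human IGF1R cytoplasmic domain from SF21 cells incubated with compound in 50 mM Hepes pH 7.5, 5 mM MnCl2, 50 mM NaCl, […] ATP. Autophosphorylation detected by HTRF (Eu-K anti-phosphotyrosine, XL665 anti-GST) after EDTA/KF stop; percentage inhibition versus no-compound control.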

[2] = molecular target: T2, human KDR enzyme (Homo sapiens, UniProt P35968); assay: KDR substrate (PLCγ) phosphorylation, scintillation assay; settings: 10 μM; read-out: KDR % inhib at 10 μM
T2 construct: The cytoplasmic domain of the human KDR enzyme; GST; made in house; host or cells: SF21 insect cells (baculovirus)
T2 sequence (P35968 786-1356 limits assumed): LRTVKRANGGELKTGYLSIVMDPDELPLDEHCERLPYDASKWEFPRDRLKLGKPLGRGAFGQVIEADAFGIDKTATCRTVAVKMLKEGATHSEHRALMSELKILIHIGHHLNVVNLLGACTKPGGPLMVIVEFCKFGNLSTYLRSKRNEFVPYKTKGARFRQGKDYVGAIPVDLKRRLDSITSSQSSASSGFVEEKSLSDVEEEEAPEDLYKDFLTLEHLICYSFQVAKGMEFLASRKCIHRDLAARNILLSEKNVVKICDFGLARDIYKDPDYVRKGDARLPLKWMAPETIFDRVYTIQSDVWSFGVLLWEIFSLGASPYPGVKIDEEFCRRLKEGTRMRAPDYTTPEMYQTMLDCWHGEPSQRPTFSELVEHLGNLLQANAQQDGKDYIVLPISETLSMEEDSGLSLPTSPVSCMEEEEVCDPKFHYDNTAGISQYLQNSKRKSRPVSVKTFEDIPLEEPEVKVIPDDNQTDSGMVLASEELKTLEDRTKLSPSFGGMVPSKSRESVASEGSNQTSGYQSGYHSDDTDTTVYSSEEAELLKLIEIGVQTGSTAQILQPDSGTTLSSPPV
Summary of the method: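 Values are percent inhibition relative to the compound-free control, read by scintillation counting of 33P incorporation after EDTA stop. Baculovirus/SF21-expressed GST-KDR cytoplasmic domain (100 ng) acted for 1 h at 37 °C in pH 7.2 MOPS kinase buffer. The substrate was GST-PLCγ SH2-SH3 (2 μg), added with γ33P-ATP and 2 μM unlabeled ATP.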

[3] = molecular target: T3, human FAK (Homo sapiens, UniProt Q05397); assay: FAK autophosphorylation inhibition, time resolved fluorescence (HTRF) assay; settings: 10 μM (values without asterisk); read-out: FAK % inhib at 10 μM
T3 construct: The complete cDNA of human FAK; made in house; host or cells: baculovirus expression system (vector pFastBac HTc)
T3 sequence (Q05397 whole entry): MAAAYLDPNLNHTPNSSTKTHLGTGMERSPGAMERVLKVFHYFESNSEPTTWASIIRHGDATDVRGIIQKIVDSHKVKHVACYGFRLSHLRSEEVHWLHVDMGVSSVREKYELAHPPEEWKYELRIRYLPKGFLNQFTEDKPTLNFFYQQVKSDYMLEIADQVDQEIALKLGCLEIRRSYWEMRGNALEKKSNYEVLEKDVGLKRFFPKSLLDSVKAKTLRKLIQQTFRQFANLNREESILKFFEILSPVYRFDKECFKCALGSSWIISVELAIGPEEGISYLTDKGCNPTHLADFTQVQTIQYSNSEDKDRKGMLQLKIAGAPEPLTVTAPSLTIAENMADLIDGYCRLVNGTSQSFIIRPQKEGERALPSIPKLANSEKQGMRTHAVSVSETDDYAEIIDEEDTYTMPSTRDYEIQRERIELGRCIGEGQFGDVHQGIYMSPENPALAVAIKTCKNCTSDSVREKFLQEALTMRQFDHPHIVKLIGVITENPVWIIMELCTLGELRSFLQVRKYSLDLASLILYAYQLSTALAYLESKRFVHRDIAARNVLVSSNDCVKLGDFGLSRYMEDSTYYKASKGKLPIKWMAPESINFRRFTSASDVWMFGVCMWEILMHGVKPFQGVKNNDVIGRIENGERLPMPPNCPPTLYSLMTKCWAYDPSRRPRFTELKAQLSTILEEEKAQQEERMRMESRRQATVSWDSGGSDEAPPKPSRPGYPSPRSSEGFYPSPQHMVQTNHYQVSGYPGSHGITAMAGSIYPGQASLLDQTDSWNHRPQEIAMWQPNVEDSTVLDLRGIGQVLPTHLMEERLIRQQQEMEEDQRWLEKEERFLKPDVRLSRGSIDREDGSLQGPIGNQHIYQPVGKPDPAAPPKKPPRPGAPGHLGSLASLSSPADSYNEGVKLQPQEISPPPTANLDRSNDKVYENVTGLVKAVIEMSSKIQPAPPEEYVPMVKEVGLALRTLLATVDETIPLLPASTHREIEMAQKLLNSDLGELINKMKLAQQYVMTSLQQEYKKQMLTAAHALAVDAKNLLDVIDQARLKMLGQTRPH
Summary of the method: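 Autophosphorylation was detected by europium-cryptate anti-pTyr and XL665 anti-His energy transfer, percent inhibition from the 665/620 ratio relative to no-compound wells. Enzyme: His-FAK full length, 6.6 µg/ml, incubated 1 h at 37 °C, pH 7.2, 15 µM ATP.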

[4] = molecular target: T4, Aurora2 kinase (Homo sapiens, UniProt O14965); assay: Aurora2 kinase radioactivity scintillation assay using nickel chelate (NuMA substrate); settings: 10 μM; read-out: Aurora2 % inhib at 10 μM
T4 construct: A complete recombinant Aurora2 enzyme; His tag (N); made in house; host or cells: E. coli
T4 sequence (O14965 1-403): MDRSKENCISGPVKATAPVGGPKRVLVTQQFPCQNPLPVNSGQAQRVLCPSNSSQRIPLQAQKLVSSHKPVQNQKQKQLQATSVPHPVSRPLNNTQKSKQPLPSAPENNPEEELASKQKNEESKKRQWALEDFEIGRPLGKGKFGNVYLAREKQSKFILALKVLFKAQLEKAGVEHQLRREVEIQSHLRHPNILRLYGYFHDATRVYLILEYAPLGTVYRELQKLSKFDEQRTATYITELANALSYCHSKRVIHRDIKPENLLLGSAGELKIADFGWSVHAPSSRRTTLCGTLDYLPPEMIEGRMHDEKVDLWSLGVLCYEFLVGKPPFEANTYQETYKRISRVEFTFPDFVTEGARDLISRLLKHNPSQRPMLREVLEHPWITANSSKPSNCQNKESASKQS
Summary of the method: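 Read-out is 33P incorporation into His-NuMA (Q1687-H2101, 0.5 μM) captured on nickel chelate, after 30 min at 37 °C with 0.02 μM His-Aurora2 and 1 μM ATP. Expressed as percentage inhibition of uncompounded control activity, background subtracted.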

Compound | inhibition at 10 µM [1] | inhibition at 10 µM [2] | inhibition at 10 µM [3] | inhibition at 10 µM [4]
CS(=O)(=O)c1ccccc1S(=O)(=O)Nc1ccc2[nH]nc(-c3ccc(C(F)(F)F)cc3)c2c1 [Example 176, N-[3-(4-Trifluoromethylphenyl)-1H-indazol-5-yl]-2-methanesulfonyl-benzenesulfonamide] | 83% | 70% | 66% | 88%
CS(=O)(=O)c1ccccc1S(=O)(=O)Nc1ccc2[nH]nc(-c3cc4ccccc4o3)c2c1 [Example 180, N-(3-Benzofuran-2-yl-1H-indazol-5-yl)-2-methanesulfonyl-benzenesulfonamide] | 93% | 29% | 95% | 99%
CS(=O)(=O)c1ccccc1S(=O)(=O)Nc1ccc2[nH]nc(-c3cccc(F)c3)c2c1 [Example 182, N-[3-(3-Fluorophenyl)-1H-indazol-5-yl]-2-methanesulfonyl-benzenesulfonamide] | 69% | 68% | 96% | 94%
C=Cc1ccc(-c2n[nH]c3ccc(NS(=O)(=O)c4ccccc4S(C)(=O)=O)cc23)cc1 [Example 185, 2-Methanesulfonyl-N-[3-(4-vinylphenyl)-1H-indazol-5-yl]-benzenesulfonamide] | 77% | 58% | 92% | 94%
CS(=O)(=O)c1ccccc1S(=O)(=O)Nc1ccc2[nH]nc(-c3ccccc3F)c2c1 [Example 188, N-[3-(2-Fluorophenyl)-1H-indazol-5-yl]-2-methanesulfonyl-benzenesulfonamide] | 61% | 64% | 91% | 74%
CCOc1ccccc1-c1n[nH]c2ccc(NS(=O)(=O)c3ccccc3S(C)(=O)=O)cc12 [Example 189, N-[3-(2-Ethoxyphenyl)-1H-indazol-5-yl]-2-methanesulfonyl-benzenesulfonamide] | 31% | 20% | 70% | 62%
CS(=O)(=O)c1ccccc1S(=O)(=O)Nc1ccc2[nH]nc(-c3ccc(CO)cc3)c2c1 [Example 191, N-[3-(4-Hydroxymethylphenyl)-1H-indazol-5-yl]-2-methanesulfonyl-benzenesulfonamide] | 73% | 45% | 96% | 88%
CS(=O)(=O)c1ccccc1S(=O)(=O)Nc1ccc2[nH]nc(-c3ccc(OCc4ccccc4)c(F)c3)c2c1 [Example 194, N-[3-(4-Benzyloxy-3-fluoro-phenyl)-1H-indazol-5-yl]-2-methanesulfonyl-benzenesulfonamide] | 41% | 39% | 44% | 58%
Cc1ccc(-c2n[nH]c3ccc(NS(=O)(=O)c4ccccc4S(C)(=O)=O)cc23)cc1C [Example 195, 2-Methanesulfonyl-N-[3-(3,4-dimethylphenyl)-1H-indazol-5-yl]benzenesulfonamide] | 75% | 47% | 91% | 91%

Now from value to compound:

inhibition at 10 µM [1] | inhibition at 10 µM [2] | inhibition at 10 µM [3] | inhibition at 10 µM [4] | Compound
80% | 71% | 97% | 95% | CS(=O)(=O)c1ccccc1S(=O)(=O)Nc1ccc2[nH]nc(-c3cccc(Cl)c3)c2c1 [Example 177, N-[3-(3-Chlorophenyl)-1H-indazol-5-yl]-2-methanesulfonyl-benzenesulfonamide]
67% | 44% | 95% | 90% | COc1cccc(-c2n[nH]c3ccc(NS(=O)(=O)c4ccccc4S(C)(=O)=O)cc23)c1 [Example 178, 2-Methanesulfonyl-N-[3-(3-methoxyphenyl)-1H-indazol-5-yl]benzenesulfonamide]
72% | 49% | 96% | 93% | Cc1cc(C)cc(-c2n[nH]c3ccc(NS(=O)(=O)c4ccccc4S(C)(=O)=O)cc23)c1 [Example 179, 2-Methanesulfonyl-N-[3-(3,5-dimethylphenyl)-1H-indazol-5-yl]benzenesulfonamide]
55% | 49% | 83% | 94% | CS(=O)(=O)c1ccccc1S(=O)(=O)Nc1ccc2[nH]nc(-c3ccc(Cl)s3)c2c1 [Example 181, N-[3-(5-Chlorothiophen-2-yl)-1H-indazol-5-yl]-2-methanesulfonyl-benzenesulfonamide]
50% | 37% | 82% | 90% | COc1ccccc1-c1n[nH]c2ccc(NS(=O)(=O)c3ccccc3S(C)(=O)=O)cc12 [Example 183, 2-Methanesulfonyl-N-[3-(2-methoxyphenyl)-1H-indazol-5-yl]benzenesulfonamide]
73% | 61% | 96% | 93% | CS(=O)(=O)c1ccccc1S(=O)(=O)Nc1ccc2[nH]nc(-c3cccc(Br)c3)c2c1 [Example 184, N-[3-(3-Bromophenyl)-1H-indazol-5-yl]-2-methanesulfonyl-benzenesulfonamide]
60% | 35% | 94% | 90% | CCOc1cccc(-c2n[nH]c3ccc(NS(=O)(=O)c4ccccc4S(C)(=O)=O)cc23)c1 [Example 186, N-[3-(3-Ethoxyphenyl)-1H-indazol-5-yl]-2-methanesulfonyl-benzenesulfonamide]
52% | 49% | 46% | 67% | CS(=O)(=O)c1ccccc1S(=O)(=O)Nc1ccc2[nH]nc(-c3ccccc3Cl)c2c1 [Example 187, N-[3-(2-Chlorophenyl)-1H-indazol-5-yl]-2-methanesulfonyl-benzenesulfonamide]
74% | 50% | 96% | 95% | CCOc1ccc(-c2n[nH]c3ccc(NS(=O)(=O)c4ccccc4S(C)(=O)=O)cc23)cc1 [Example 190, N-[3-(4-Ethoxyphenyl)-1H-indazol-5-yl]-2-methanesulfonyl-benzenesulfonamide]
72% | 47% | 90% | 89% | CS(=O)(=O)c1ccccc1S(=O)(=O)Nc1ccc2[nH]nc(-c3ccc(F)c(F)c3)c2c1 [Example 192, N-[3-(3,4-Difluorophenyl)-1H-indazol-5-yl]-2-methanesulfonyl-benzenesulfonamide]
65% | 56% | 76% | 88% | CCc1ccc(-c2n[nH]c3ccc(NS(=O)(=O)c4ccccc4S(C)(=O)=O)cc23)cc1 [Example 193, N-[3-(4-Ethylphenyl)-1H-indazol-5-yl]-2-methanesulfonyl-benzenesulfonamide]
76% | 73% | 94% | 94% | CS(=O)(=O)c1ccccc1S(=O)(=O)Nc1ccc2[nH]nc(-c3ccc4c(c3)OCO4)c2c1 [Example 196, N-[3-(Benzo[1,3]dioxol-5-yl)-1H-indazol-5-yl]-2-methanesulfonyl-benzenesulfonamide]
0% | 41% | 43% | 73% | CC(C)(C)c1ccc(-c2n[nH]c3ccc(NS(=O)(=O)c4ccccc4S(C)(=O)=O)cc23)cc1 [Example 197, N-[3-(4-tert-Butylphenyl)-1H-indazol-5-yl]-2-methanesulfonyl-benzenesulfonamide]
